Data from patent US6645915B1, “Substituted 1,3,5- triazines” (Nihon Bayer Agrochem K. K., priority 1998, dated 2003).

Legend:
[1] = logP by reversed-phase HPLC (EEC Directive 79/831 Annex V.A8); format: physicochemical; settings: acetonitrile gradient; for logP: HPLC, reversed-phase C 18, 43° C., acidic range a): 0.1% aqueous phosphoric acid; for chromatographic logP: reversed-phase C18 HPLC column; HPLC, reversed-phase C 18, 43° C., acidic range a): 0.1% aqueous phosphoric acid
Experimental: The logP values given in Table 1 were determined in accordance with EEC Directive 79/831 Annex V.A8 by HPLC (High Performance Liquid Chromatography) using a reversed-phase column (C 18). Temperature: 43° C.
(a) Mobile phase for the determination in the acidic range: 0.1% aqueous phosphoric acid, acetonitrile; linear gradient from 10% acetonitrile to 90% acetonitrile—the corresponding data in Table 1 are labelled^a).
Calibration was carried out using unbranched alkan-2-ones (having from 3 to 16 carbon atoms) with known logP values (the logP values were determined using the retention times, by linear interpolation between two successive alkanones).

[2] = tested on: weeds; experiment: Post-emergence test B-1; format: in vivo; settings: post-emergence test B-1, in words
Experimental: (§1) To produce a suitable preparation of active compound, 1 part by weight of active compound is mixed with the stated amount of solvent, the stated amount of emulsifier is added and the concentrate is diluted with water to the desired concentration.
(§2) Test plants of a height of 5-15 cm are sprayed with the preparation of active compound such that the particular amounts of active compound desired are applied per unit area. The concentration of the spray liquor is chosen so that the particular amounts of active compound desired are applied in 1000 l of water/ha.
(§3) After three weeks, the degree of damage to the plants is rated in % damage in comparison to the development of the untreated control.
(§4) 0%=no effect (like untreated control)

[3] = tested on: Amaranthus; experiment: Post-emergence test B-1 / greenhouse; format: in vivo; settings: 500 g of ai./ha, rated after three weeks, 0% = no effect, 100% = total destruction
Experimental: as §1, §2, §3, §4

[4] = tested on: Xanthium; experiment: Post-emergence test B-1 / greenhouse; format: in vivo; settings: 500 g of ai./ha, rated after three weeks, 0% = no effect, 100% = total destruction
Experimental: as §1, §2, §3, §4

[5] = tested on: Setaria; experiment: Post-emergence test B-1 / greenhouse; format: in vivo; settings: 500 g of ai./ha, rated after three weeks, 0% = no effect, 100% = total destruction
Experimental: as §1, §2, §3, §4

[6] = tested on: Sinapis; experiment: Post-emergence test B-1 / greenhouse; format: in vivo; settings: 500 g of ai./ha, rated after three weeks, 0% = no effect, 100% = total destruction
Experimental: as §1, §2, §3, §4

[7] = tested on: Maize; experiment: Post-emergence test B-1 / greenhouse; format: in vivo; settings: 500 g of ai./ha, rated after three weeks, 0% = no effect, 100% = total destruction
Experimental: as §1, §2, §3, §4

[8] = tested on: Echinocloa crus galli, Setaria viridis, Amaranthus lividus and Polygonum blumei MEISSN; experiment: Post-emergence test B-2; format: in vivo; settings: post-emergence test B-2, plants in 2-leaf stage, rated after three weeks, in words
Experimental: as §1
Test plants (Echinocloa crus galli, Setaria viridis, Amaranthus lividus and Polygonum blumei MEISSN) which, on average, are in the 2-leaf stage, are sprayed with the preparation of active compound such that the particular amounts of active compound desired are applied per unit area.
as §3, §4

[9] = tested on: Echinocloa crus galli, Setaria viridis, Amaranthus lividus and Polygonum blumei MEISSN; experiment: Pre-emergence test A-2; format: in vivo; settings: pre-emergence test A-2, rated after four weeks, in words
Experimental: as §1
Seeds of the test plants (Echinocloa crus galli, Setaria viridis, Amaranthus lividus and Polygonum blumei MEISSN) are sown in normal soil. The soil is sprayed with the preparation of active compound such that the particular amount of active compound desired is applied per unit area.
After four weeks, the degree of damage to the plants is rated in % damage in comparison to the development of the untreated controls.
as §4

[10] = tested on: Amaranthus; experiment: Pre-emergence test A-1 / greenhouse; format: in vivo; settings: 500 g of ai./ha, rated after three weeks, 0% = no effect, 100% = total destruction
Experimental: as §1
(§5) Seeds of the test plants are sown in normal soil. After about 24 hours, the soil is sprayed with the preparation of active compound such that the particular amount of active compound desired is applied per unit area. The concentration of the spray liquor is chosen so that the particular amount of active compound desired is applied in 1000 litres of water per hectare.
as §3, §4

[11] = tested on: Maize; experiment: Pre-emergence test A-1 / greenhouse; format: in vivo
Experimental: as §1, §5, §3, §4

[12] = tested on: Abutilon; experiment: Pre-emergence test A-1 / greenhouse; format: in vivo; settings: 500 g of ai./ha, rated after three weeks, 0% = no effect, 100% = total destruction
Experimental: as §1, §5, §3, §4

[13] = tested on: weeds; experiment: Pre-emergence test A-1; format: in vivo; settings: pre-emergence test A-1, in words
Experimental: as §1, §5, §3, §4

[14] = tested on: Abutilon; experiment: Post-emergence test B-1 / greenhouse; format: in vivo; settings: 500 g of ai./ha, rated after three weeks, 0% = no effect, 100% = total destruction
Experimental: as §1, §2, §3, §4

| Compound | logP [1] | action against weeds [2] | % damage, Amaranthus [3] [%] | % damage, Setaria [5] [%] | % damage, Sinapis [6] [%] | further results |
| --- | --- | --- | --- | --- | --- | --- |
| CC(Nc1nc(N)nc(C(F)(F)Cl)n1)C1CCCCC1 (racemic) [Example 6] | logP = 3.51^a) (racemate) | strong action | 100 | 100 | 100 | % damage, Xanthium [4]: 100% |
| CC(Nc1nc(N)nc(C(C)(C)F)n1)C1CCCCC1 (racemic) [Example 7] | logP = 1.93^a) (racemate) | strong action | 100 | 100 | 100 | % damage, Xanthium [4]: 100% |
| CCC(=O)Nc1nc(NC(C)C2CCCCC2)nc(C(F)(F)Cl)n1 (racemic) [Example 8] | logP = 4.23^a) (racemate) | strong action | 100 | 100 | 100 | % damage, Xanthium [4]: 100% |
| CCC(=O)Nc1nc(NC(C)C2CCCCC2)nc(C(C)(C)F)n1 (racemic) [Example 9] | logP = 3.30^a) (racemate) | strong action | 95 | 90 | 100 | % damage, Maize [7]: 30% |
| CCCC(C)Nc1nc(N)nc(C(C)(C)F)n1 (racemic) [Example 28] |  |  |  |  |  | action against the abovementioned weeds [8]: strong action |
| CC(C)CC(C)Nc1nc(N)nc(C(C)(C)F)n1 (racemic) [Example 29] |  |  |  |  |  | action against the abovementioned weeds [8]: strong action |
| CC(C)CCCC(C)Nc1nc(N)nc(C(C)(C)F)n1 (racemic) [Example 31] |  |  |  |  |  | action against the abovementioned weeds [8]: strong action |
| CCC(CC)Nc1nc(N)nc(C(C)F)n1 (racemic) [Example 32] |  |  |  |  |  | action against the abovementioned weeds [9]: strong action |
| C[C@H](Nc1nc(N)nc([C@@H](C)F)n1)C1CCCCC1 [Example 1, (R,S)-N′-(1-cyclohexyl-ethyl)-6-(1-fluoro-ethyl)-1,3,5-triazine-2,4-diamine] |  | strong action | 100 | 100 | 100 | chromatographic logP [1]: 1.83; % damage, Xanthium [4]: 100%; % damage, Amaranthus [10]: 100%; tolerance by crop plants, such as maize ([11]; pre-emergence test A-1, in words): tolerated very well; % damage, Maize ([11]; pre-emergence, 500 g of ai./ha, rated after three weeks, 0% = no effect, 100% = total destruction): 0%; % damage, Abutilon [12]: 80%; action against weeds [13]: strong action |
| CCC(=O)Nc1nc(N[C@@H](C)C2CCCCC2)nc([C@@H](C)F)n1 [Example 2, (R,S)-N-[4-(1-cyclohexyl-ethylamino)-6-(1-fluoro-ethyl)-1,3,5-triazin-2-yl]-propionamide] |  | strong action | 100 | 100 | 100 | chromatographic logP [1]: 3.14; % damage, Xanthium [4]: 100% |
| C[C@H](Nc1nc(NC=O)nc([C@@H](C)F)n1)C1CCCCC1 [Example 3, (R,S)-N-[4-(1-cyclohexyl-ethylamino)-6-(1-fluoro-ethyl)-1,3,5-triazin-2-yl]-formamide] |  | strong action | 100 | 100 | 100 | chromatographic logP [1]: 3.04; % damage, Abutilon [14]: 90%; melting point: 127 °C |
| CCC(=O)Nc1nc(N[C@H](C)C2CCCCC2)nc(C(C)F)n1 (stereo partly shown) [Example 15] | logP = 3.11^a) (R enantiomer) |  |  |  |  |  |
| CCC(=O)Nc1nc(N[C@H](C)C2CCCCC2)nc(C(C)(C)F)n1 [Example 16] | logP = 3.25^a) (R enantiomer) |  |  |  |  |  |
| CCC(=O)Nc1nc(N[C@H](C)C2CCCCC2)nc(C(Cl)Cl)n1 [Example 17] | logP = 2.93^a) (R enantiomer) |  |  |  |  |  |
| CCC(=O)Nc1nc(N[C@@H](C)C2CCCCC2)nc(C(C)F)n1 (stereo partly shown) [Example 21] | logP = 3.11^a) (S enantiomer) |  |  |  |  |  |
| CCC(=O)Nc1nc(N[C@@H](C)C2CCCCC2)nc(C(C)(C)F)n1 [Example 22] | logP = 3.26^a) (S enantiomer) |  |  |  |  |  |
| CCC(=O)Nc1nc(N[C@@H](C)C2CCCCC2)nc(C(Cl)Cl)n1 [Example 23] | logP = 2.93^a) (S enantiomer) |  |  |  |  |  |
| CCC(CC)Nc1nc(N)nc(C(C)(C)F)n1 [Example 33] |  |  |  |  |  | action against the abovementioned weeds [9]: strong action |
| CCC(CC)Nc1nc(NC(C)=O)nc(C(C)(C)F)n1 [Example 34] |  |  |  |  |  | action against the abovementioned weeds [9]: strong action |
| N-(1-ethylpropyl)-6-(1-fluoro-1-methylethyl)-1,3,5-triazine-2,4-diamine [Example 4] |  | strong action | 100 | 100 | 100 | % damage, Xanthium [4]: 100% |
| N-acetyl-N′-(1-ethylpropyl)-6-(1-fluoro-1-methylethyl)-1,3,5-triazine-2,4-diamine [Example 5] |  | strong action | 100 | 95 | 95 | % damage, Abutilon [14]: 90% |
